Usually IC50 stands for the point on the concentration scale where inhibition reaches its midpoint.

Results on 29 compounds are retold here after ChEMBL document CHEMBL3046251, “3D-QSAR CoMFA and CoMSIA studies for design of potent human steroid 5-reductase inhibitors” (Med Chem Res, 2013).

The target in the assay is T1, 3-oxo-5-alpha-steroid 4-dehydrogenase 2 (Homo sapiens, UniProt P31213).
T1 sequence (P31213 whole entry): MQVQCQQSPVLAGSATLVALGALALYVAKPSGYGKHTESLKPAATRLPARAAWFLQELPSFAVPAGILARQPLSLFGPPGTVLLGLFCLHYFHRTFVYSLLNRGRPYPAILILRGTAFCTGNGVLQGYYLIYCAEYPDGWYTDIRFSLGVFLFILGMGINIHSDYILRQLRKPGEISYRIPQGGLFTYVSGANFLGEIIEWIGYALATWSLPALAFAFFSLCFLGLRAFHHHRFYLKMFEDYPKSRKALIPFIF
Put plainly: Inhibition of Homo sapiens (human) Steroid 5-alpha-reductase type 2.

SMILES strings stand for the structures.

Turning to `CC(C)(C)NC(=O)[C@H]1CC[C@H]2[C@@H]3CNC4=CC(=O)C=C[C@]4(C)[C@H]3CC[C@]12C`, it took 1.8 nM to reach half-maximal inhibition (IC50).
Compound `CCN(CC)C(=O)[C@H]1CC[C@H]2[C@@H]3CN(C)C4=CC(=O)CC[C@]4(C)[C@H]3CC[C@]12C` showed an IC50 of 2.3 nM. This IC50 and that of the compound before are within 1.5-fold of each other.
`CC(C)c1cc(C(C)C)c(C(=O)[C@H]2CC[C@H]3[C@@H]4CNC5=CC(=O)CC[C@]5(C)[C@H]4CC[C@]23C)c(C(C)C)c1` displayed an IC50 of 0.5 nM. This IC50 lies about 4.6-fold lower than the previous one.
With `CCCN1C[C@H]2[C@@H]3CC[C@H](C(=O)NC(c4ccccc4)c4ccccc4)[C@@]3(C)CC[C@@H]2[C@@]2(C)C=CC(=O)C=C12` the figure was 1.3 nM; with `CN1C[C@H]2[C@@H]3CC[C@H](C(=O)NC(c4ccccc4)c4ccccc4)[C@@]3(C)CC[C@@H]2[C@@]2(C)CCC(=O)C=C12`, 0.2 nM.
As for `CN1C[C@H]2[C@@H]3CC[C@H](C(=O)NC4C5CC6CC(C5)CC4C6)[C@@]3(C)CC[C@@H]2[C@@]2(C)CCC(=O)C=C12` (some centres undefined), the IC50 was 0.3 nM.
With `CC1=C2NC[C@H]3[C@@H]4CC[C@H](C(=O)NC(C)(C)C)[C@@]4(C)CC[C@@H]3[C@@]2(C)CCC1=O` the figure was 1.4 nM; with `CN1C[C@H]2[C@@H]3CC[C@H](C(=O)NC(C)(C)C)[C@@]3(C)CC[C@@H]2[C@@]2(C)C=CC(=O)C=C12`, 6.7 nM.
With `CCN(CC)C(=O)[C@H]1CC[C@H]2[C@@H]3CNC4=C(C)C(=O)C=C[C@]4(C)[C@H]3CC[C@]12C` the figure was 8.1 nM.
`CCN(CC)C(=O)[C@H]1CC[C@H]2[C@@H]3CNC4=C(Br)C(=O)CC[C@]4(C)[C@H]3CC[C@]12C`: the IC50 turned out to be 2.1 nM. This IC50 is about 3.9-fold lower than that of the compound before.
For `CCN(CC)C(=O)[C@H]1CC[C@H]2[C@@H]3CN(C)C4=CC(=O)C=C[C@]4(C)[C@H]3CC[C@]12C`, the IC50 stood at 5.7 nM.
With `CCN(CC)C(=O)[C@H]1CC[C@H]2[C@@H]3CN(C(C)C)C4=CC(=O)CC[C@]4(C)[C@H]3CC[C@]12C` the figure was 4.9 nM.
With `CCN(CC)C(=O)[C@H]1CC[C@H]2[C@@H]3CN(C#N)C4=CC(=O)CC[C@]4(C)[C@H]3CC[C@]12C` the figure was 42 nM; with `CCN(CC)C(=O)[C@H]1CC[C@H]2[C@@H]3CNC4=CC(=O)CC[C@]4(C)[C@H]3CC[C@]12C`, 1.5 nM; with `CCN(CC)C(=O)[C@H]1CC[C@H]2[C@@H]3CNC4=CC(=O)C=C[C@]4(C)[C@H]3CC[C@]12C`, 3.5 nM.
For the compound `C[C@]12CC[C@H]3[C@@H](CNC4=CC(=O)CC[C@@]43C)[C@@H]1CC[C@@H]2C(=O)Nc1cc(C(F)(F)F)cc(C(F)(F)F)c1`, the IC50 is 0.2 nM.
`CC(C)(C)c1ccc(-c2ccc(C(F)(F)F)cc2NC(=O)[C@H]2CC[C@H]3[C@@H]4CNC5=CC(=O)CC[C@]5(C)[C@H]4CC[C@]23C)cc1`: the IC50 was 0.5 nM.
With `CC(C)(C)c1ccccc1NC(=O)[C@H]1CC[C@H]2[C@@H]3CNC4=CC(=O)CC[C@]4(C)[C@H]3CC[C@]12C` the figure was 0.2 nM; with `CC(C)CC(=O)[C@H]1CC[C@H]2[C@@H]3CNC4=CC(=O)CC[C@]4(C)[C@H]3CC[C@]12C`, 0.08 nM; with `C[C@]12CC[C@H]3[C@@H](CNC4=CC(=O)CC[C@@]43C)[C@@H]1CC[C@@H]2C(=O)N1CCOCC1`, 7.1 nM.
With `C[C@]12CC[C@H]3[C@@H](CNC4=CC(=O)CC[C@@]43C)[C@@H]1CC[C@@H]2C(=O)NN(c1ccccc1)c1ccccc1` the figure was 0.23 nM.
For `C[C@]12CC[C@H]3[C@@H](CNC4=CC(=O)CC[C@@]43C)[C@@H]1CC[C@@H]2C(=O)NC(C1CCCCC1)C1CCCCC1` the value was 0.4 nM; for `C[C@]12CC[C@H]3[C@@H](CNC4=CC(=O)CC[C@@]43C)[C@@H]1CC[C@@H]2C(=O)NC(c1ccc(Cl)cc1)c1ccc(Cl)cc1`, 0.12 nM.
Compound `C[C@]12CC[C@H]3[C@@H](CNC4=CC(=O)CC[C@@]43C)[C@@H]1CC[C@@H]2C(=O)NC(c1ccccc1)(c1ccccc1)c1ccccc1` returned an IC50 of 0.09 nM.
With `C[C@]12CC[C@H]3[C@@H](CNC4=CC(=O)CC[C@@]43C)[C@@H]1CC[C@@H]2C(=O)NC(c1ccccc1)c1ccccc1` the figure was 0.09 nM; with `CCN(C)C(=O)[C@H]1CC[C@H]2[C@@H]3CNC4=CC(=O)CC[C@]4(C)[C@H]3CC[C@]12C`, 2.8 nM; with `CC(C)N(C(=O)[C@H]1CC[C@H]2[C@@H]3CNC4=CC(=O)CC[C@]4(C)[C@H]3CC[C@]12C)C(C)C`, 0.36 nM.
With `C[C@]12CC[C@H]3[C@@H](CNC4=CC(=O)CC[C@@]43C)[C@@H]1CC[C@@H]2C(=O)OC1C2CC3CC(C2)CC1C3` (some centres undefined) the figure was 0.04 nM.
For `CON(C)C(=O)[C@H]1CC[C@H]2[C@@H]3CNC4=CC(=O)CC[C@]4(C)[C@H]3CC[C@]12C` the value was 2.4 nM.
